Here are results for four compounds from patent publication US4939142A, “Substituted styrene derivatives” (priority 1989, dated 1990).

SMILES strings stand for the structures. Where only a bound is given, the exact number is not on record here.

One data set can be described thus: in vivo. The note with it: mouse, in vivo, po. The procedure: (§1) Male and female white mice (CFLP strain, 18-22 g) are used, 10 animals per dose. The test compounds are administered orally in a volume of 20 ml/kg. After administration the mice are observed for a period of 7 days. The animals are kept in plastic boxes, on wood litter, at room temperature. The animals receive standard mouse fodder and tap water ad libitum.

A further data set deals with pentetrazole spasm. The data set can be described thus: Inhibition of pentetrazol spasm on mice.
Data set [1] relates to experimental coronary insufficiency induced by vasopressine. The data set can be described thus: Antianginal effect on rats, vasopressine-induced coronary insufficiency, T-wave (Nieschultz). Type of data set: in vivo, male rats. To be noted: Table IX, dose 2 mg/kg, vasopressine 1 IU/kg i.v. The procedure:
The test is carried out on male rats weighing 180-220 g. The animals are narcotized with the aid of chloralose urethane (70-700 mg/kg i.p.). ECG is registered by means of needle electrodes in standard II output. Antianginal effect is tested according to the method of Nieschultz. Experimental coronary insufficiency is induced by administering vasopressine (1 IU/kg i.v.) on 10-12 animals for each dose. The magnitude of the T-wave before and after the administration of vasopressine is measured in the treated and control groups.

The subject of a further data set is tetrabenazine ptosis. The experiment in a line: Tetrabenazin ptosis antagonism (Hoffmeister et al.). It is filed as in vivo. To be noted: Table III. The method, then:
The test is carried out by the method of Hoffmeister et al. adapted to mice. Groups consisting of 10-20 animals are treated orally with each dose of the test compound. The control group is treated orally with the carrier. Thirty minutes later a 50 mg/kg i.p. tetrabenazine dose is administered, whereupon after 30, 60, 90 and 120 minutes the animals with closed eye-lids are counted in each group.
On the basis of all measurements an average ptosis is calculated for each group and expressed as the percentile deviation (inhibition) from the control group. On the basis of the data thus obtained ED50 values are calculated.
[Hoffmeister, F., Wuttke, W., and Kroneberg, G.: Arzneim. Forsch. (Drug.

Another data set concerns motility. The experiment in a line: animal or person. It is filed as in vivo. The procedure: The test is accomplished according to the method of Borsy et al. in a 10-channel Dews system equipment, whereby 3 mice are used per channel. The test compound or the carrier, respectively, is administered orally, and one hour after the said treatment the animals are placed into the apparatus and the number of the interruptions of infrared radiation is registered for 30 minutes.
The results are summarized in Table II and documented by means of suitable statistics for each experiment.
[J. Borsy, E. Csanyi, I. Lazar: Arch. Int. Pharmacodyn. 124, 1 (1960)].

The next data set has as its system hexobarbital narcosis. The experiment in a line: Hexobarbital narcosis potentiating effect.
The test system of a further data set is mice. The data set can be described thus: in vivo. To be noted: oral, mice, 10080 min. The procedure:
as §1

The next data set concerns ulcus secretion. The experiment in a line: animal or person. Type of data set: in vivo. The method, then: The test is carried out according to the method of Nakamura on rats (Wistar strain) weighing 150-230 g and fasted for 48 hours. Each animal group consists of 4 male and 4 female rats. On the day of the experiment the pylorus of the animals is bound and the corresponding dose of the test compound is administered orally immidiately after operation. The animals are killed with ether 5 hours after the operation, their stomach is removed, cut along the large curve and placed on plastic plates.

The term LD50 denotes the dose expected to kill half of the subjects tested. Usually ED50 stands for the dose at which the effect has come halfway, by size or by number of responders.

Description for hexobarbital narcosis: The test is carried out on white mice. Groups consisting of six mice are used for each dose and test compound. The test compound is administered orally and an hour after this treatment narcosis is induced by means of a 40 mg/kg i.v. dose of hexobarbital. The control group receives carrier instead of the test compound.
Those mice are considered to be having a positive reaction which show a narcosis time at least 2.5 times longer than that of the control group. The ED50 values thus transformed are calculated.
Description for pentetrazole spasm: The modified method of Benziger and Hane is used on white mice. Groups consisting of 6 animals are used for each dose. […] The test compounds are administered orally one hour before the treatment with pentetrazole; in the control group the animals obtain the carrier orally at the same points of time.
The therapeutical index data disclosed in the above Tables are calculated by means of the following equation: [formula]

Compound `COc1ccccc1/C=C/C1=CC(=N/OCCN2CCCCC2)/CC(C)(C)C1` [Example 33, 5,5-Dimethyl-3-(E)-[(2'-methoxy-phenyl)-vinyl]-1-(E)-(N-piperidinyl-ethoxyimino)-cyclohexene] gave a 50% lethal dose (LD50) at 168 h in the data set “in vivo” above 1000 mg/kg. Also, the median effective dose (ED50) in the data set with pentetrazole spasm (Mus musculus, po) is 63 mg/kg. The Therapeutical index with pentetrazole spasm (Table V, pentetrazole spasm, LD50/ED50) is on record as above 15.9. Moreover, in data set [1], the Inhibition % is recorded as -47.1%.
In the case of `CC1(C)CC(/C=C/c2ccc(Cl)cc2)=CC(=N/OCCCN2CCN(Cc3ccccc3)CC2)/C1` [Example 20, 5,5-Dimethyl-3-(E)-[(4'-chloro-phenyl)-vinyl]-1-(E)-(4"-phenyl-methyl-1"-piperazinyl-propoxyimino)-2-cyclohexene], the 50% effect level in the data set with tetrabenazine ptosis (Mus musculus, oral, 30 min before tetrabenazin 50 mg/kg i.p.) (ED50) was put at a dose of 8.5 mg/kg. Besides, the Therapeutical index with tetrabenazine ptosis (tetrabenazin ptosis, LD50/ED50) was 235.3. In the data set “in vivo”, this compound registered a median lethal dose (LD50) at 168 h of 2000 mg/kg. Besides, in data set [1], the Inhibition % is -54.4%.
For the compound `CC1(C)CC(/C=C/c2cccc(Cl)c2)=CC(=N/OCCN2CCOCC2)/C1` [Example 28, 5,5-Dimethyl-3-(E)-[(3'-chloro-phenyl)-vinyl]-1-(E)-(N-morpholino-ethoxyimino)-2-cyclohexene], the Inhibition % in data set [1] is reported as -31%.
Turning to `COc1cccc(/C=C/C2=CC(=N/OCCCN3CCOCC3)/CC(C)(C)C2)c1` [Example 30, 5,5-Dimethyl-3-(E)-[(3'-methoxy-phenyl)-vinyl]-1-(E)-(N-morpholino-propoxyimino)-2-cyclohexene], the median effective dose (ED50) in the data set on motility (Mus musculus, po) was around 200 mg/kg; in the data set on hexobarbital narcosis (Mus musculus, po) it was 21.5 mg/kg; in the data set with ulcus secretion (Rattus norvegicus, po, 5 h), around 150 mg/kg. For the same compound, the Therapeutical index was above 10.0 in the data set on motility (Table II, motility inhibition, LD50/ED50) and “above 13.3” in the data set on ulcus secretion (Table X, ulcus secretion, LD50/ED50). Further, the “Therapeutical index LD50 /ED50” value in the data set with hexobarbital narcosis (Table I, hexobarbital narcosis) is above 93.0. This compound also returned a 50% lethal dose (LD50) at 168 h in “in vivo” above 2000 mg/kg. For the same compound, the LD50 with mice (Table I) and in the data set on mice (Table II) was above 2000 mg/kg each time. Further, in data set [1], the Inhibition % was -45%.
